Assay results published in US9943569B2, “Method for preventing or reducing postoperative pulmonary complications” (OSAKA UNIVERSITY, priority 2015, dated 2018).

How the values were obtained:
[1] = system: patients after esophagectomy; assay: Phase I study of ghrelin administration during the postoperative period after esophagectomy; format: in vivo, human
[2] = Plasma ghrelin concentration (enzyme immunoassay), randomized placebo-controlled phase II study; format: in vivo, human
Description: (§1) Forty patients with primary esophageal cancer who underwent esophagectomy were selected to participate in a randomized, placebo-controlled phase II study. The patients were selected based on the following eligibility criteria: (1) thoracic esophageal cancer treated by performing radical esophagectomy with gastric tube reconstruction; (2) age 20 to 75 years; (3) adequate functioning of major organs; (4) no other active malignancies; and (5) provision of written informed consent. The following exclusions criteria were used: (1) preoperative diagnosis of esophageal cancer invasion to the aorta or trachea and other organs; (2) patients with multiple cancer; (3) severe respiratory problems, such as emphysema; (4) patients with prior ischemic heart disease; (5) liver cirrhosis or active hepatitis; (6) renal failure requiring dialysis treatment; (7) poorly controlled diabetes mellitus or disease requiring insulin treatment; (8) consecutive use of steroids; and (9) mental disorder. The patients were randomly divided into a ghrelin group and a placebo group at a 1:1 ratio. The approach for thoracic manipulation (i.e., open or thoracoscopic surgery) was used as the only stratification factor. Group allocation was performed before the initiation of surgery. The study was performed in a double-blind manner, and an independent researcher assessed outcomes.
(§2) The primary endpoint of this study was SIRS duration. The secondary endpoints were postoperative complications, serum C-reactive protein (CRP) and IL-6 levels, time required to attain a positive nitrogen balance, and changes in body weight and body composition. Postoperative complications were defined as adverse events caused by surgery. Patients received an intravenous continuous infusion of ghrelin (0.5 μg/kg/h) or placebo (pure saline) for 5 days postoperatively. Ghrelin was diluted to a final volume of 48 mL with saline, and the solution was administered at a rate of 2 mL/h by using an infusion pump through a central venous catheter inserted into the right subclavian vein. The same amount of ghrelin was administered via intravenous infusion during the 5 days of treatment; the dose was calculated on the basis of body weight on the day before surgery. Patients in the placebo group received the corresponding infusion containing pure saline using same procedure.
(§3) Blood sampling was performed at the following 7 time points: before surgery; 2 hours after initiation of surgery (during thoracotomy); 4 hours after initiation of surgery (during laparotomy); and on PODs 1, 3, 7, and 10. Complete blood count was performed every day for at least 10 PODs. If the leukocyte count was not within the normal range on POD10, complete blood counts were performed daily until it was within the normal range for 3 consecutive days. SIRS was diagnosed according to the criteria proposed by the American College of Chest Physicians/Society of Critical Care Medicine Consensus Conference^32 and when 2 or more of the following criteria were present: (1) body temperature less than 36° C. or more than 38° C.; (2) heart rate more than 90 beats per minute; (3) tachypnea with more than 20 breaths per minute or an arterial partial pressure of carbon dioxide less than 32 mm Hg; and (4) white blood cell count less than 4000 cells/mm^3, >12,000 cells/mm^3, or an immature (band) form more than 10%. Postoperative complications were evaluated according to the Clavien-Dindo classification.^33 Grade I required no treatment, grade II required medical therapy, grade Ma required interventions but not general anesthesia, grade Mb required general anesthesia, grade IV represented life-threatening states that required intensive care, and grade V represented death.
Sampled blood was immediately transferred into a chilled glass tube containing disodium ethylenediaminetetraacetic acid for plasma sampling or a separating agent for serum sampling, and the samples were then centrifuged at 4° C. […]

[3] = system: patients undergoing esophagectomy; assay: Postoperative complications according to the Clavien-Dindo classification; format: in vivo, human
Description: as §1, §2, §3

GH secretion = assay: Mode of ghrelin administration and GH secretion (unpublished data); format: in vivo; settings: continuous infusion vs periodic injection
[4] = system: patients undergoing esophagectomy; assay: Adverse events attributable to ghrelin administration in the phase II study; format: in vivo, human; settings: during the study period; 0.5 μg/kg/h continuous i.v. for 5 days, n=20
Experimental: as §2
In total, 40 enrolled patients were randomized into either the ghrelin group (20 patients) or the placebo group (20 patients). All patients received the planned dose of ghrelin or placebo during the planned period. […]

C-reactive protein (CRP) = assay: Postoperative change in serum CRP; format: in vivo, human; settings: n=20
Experimental: as §2, §3

[5] = system: patients undergoing esophagectomy; assay: Time required to attain positive nitrogen balance; format: in vivo, human; settings: ghrelin 0.5 μg/kg/h continuous i.v. for 5 days, n=20
Experimental: as §2

[6] = ghrelin 0.5 μg/kg/h continuous i.v. for 5 days, n=20

SMILES: CCCCCCCC(=O)OC[C@H](NC(=O)[C@H](CO)NC(=O)CN)C(=O)N[C@@H](Cc1ccccc1)C(=O)N[C@@H](CC(C)C)C(=O)N[C@@H](CO)C(=O)N1CCC[C@H]1C(=O)N[C@@H](CCC(=O)O)C(=O)N[C@@H](Cc1cnc[nH]1)C(=O)N[C@@H](CCC(N)=O)C(=O)N[C@@H](CCCNC(=N)N)C(=O)N[C@H](C(=O)N[C@@H](CCC(N)=O)C(=O)N[C@@H](CCC(N)=O)C(=O)N[C@@H](CCCNC(=N)N)C(=O)N[C@@H](CCCCN)C(=O)N[C@@H](CCC(=O)O)C(=O)N[C@@H](CO)C(=O)N[C@@H](CCCCN)C(=O)N[C@@H](CCCCN)C(=O)N1CCC[C@H]1C(=O)N1CCC[C@H]1C(=O)N[C@@H](C)C(=O)N[C@@H](CCCCN)C(=O)N[C@@H](CC(C)C)C(=O)N[C@@H](CCC(N)=O)C(=O)N1CCC[C@H]1C(=O)N[C@@H](CCCNC(=N)N)C(=O)O)C(C)C [ghrelin]
- systemic inflammation relative to conventional management protocols without ghrelin [1]: tended to be suppressed
- effect on fundamental vital signs (blood pressure, heart rate, urine output, pulmonary and liver function) ([1]; postoperative intensive care management): did not affect fundamental vital signs
- Total ghrelin ([2]; Postoperative (POD7)): 60.2 ± 34.1 imol/mL
- Total ghrelin ([2]; Preoperative (baseline)): 106.6 ± 76.8 imol/mL
- level at time molar at 2 h ([2]; human, plasma, iv, 0.5 ug/kg/h, 2 hours after the start of injection, 0.5 μg/kg/h continuous i.v. infusion): 0.743 ± 0.191 nM
- level at time molar at 4 h ([2]; human, plasma, iv, 0.5 ug/kg/h, 4 hours after the start of injection, 0.5 μg/kg/h continuous i.v. infusion): 0.711 ± 0.146 nM
- level at time molar at 1 postoperative day ([2]; human, plasma, iv, 0.5 ug/kg/h, POD1, during infusion 0.5 μg/kg/h): 0.749 ± 0.143 nM
- level at time molar at 3 postoperative day ([2]; human, plasma, iv, 0.5 ug/kg/h, POD3, during infusion 0.5 μg/kg/h): 0.737 ± 0.199 nM
- level at time molar at 7 postoperative day ([2]; human, plasma, iv, 0.5 ug/kg/h, POD7, after administration of ghrelin): 0.0602 ± 0.0341 nM
- level at time molar at 10 postoperative day ([2]; human, plasma, iv, 0.5 ug/kg/h, POD10, after administration of ghrelin): 0.063 ± 0.031 nM
- level at time molar ([2]; human, plasma, iv, 0.5 ug/kg/h, before ghrelin administration (baseline), ghrelin group n=20): 0.107 ± 0.0768 nM
- Anastomotic leak, number of patients ([3]; Grade 0, n=20): 19
- Arrhythmia, number of patients ([3]; Grade 0, n=20): 19
- Bleeding, number of patients ([3]; Grade 0, n=20): 20
- Lymphorrhea, number of patients ([3]; Grade 0, n=20): 20
- Pneumonia, atelectasis, number of patients ([3]; Grade 0, n=20): 14
- Recurrent nerve paralysis, number of patients ([3]; Grade 0, n=20): 18
- Wound infection, number of patients ([3]; Grade 0, n=20): 19
- Anastomotic leak, number of patients ([3]; Grade I, II, n=20): 1
- Arrhythmia, number of patients ([3]; Grade I, II, n=20): 1
- Bleeding, number of patients ([3]; Grade I, II, n=20): 0
- Lymphorrhea, number of patients ([3]; Grade I, II, n=20): 0
- Pneumonia, atelectasis, number of patients ([3]; Grade I, II, n=20): 4
- Recurrent nerve paralysis, number of patients ([3]; Grade I, II, n=20): 2
- Wound infection, number of patients ([3]; Grade I, II, n=20): 1
- Anastomotic leak, number of patients ([3]; Grade III, IV, n=20): 0
- Arrhythmia, number of patients ([3]; Grade III, IV, n=20): 0
- Bleeding, number of patients ([3]; Grade III, IV, n=20): 0
- Lymphorrhea, number of patients ([3]; Grade III, IV, n=20): 0
- Pneumonia, atelectasis, number of patients ([3]; Grade III, IV, n=20): 2
- Recurrent nerve paralysis, number of patients ([3]; Grade III, IV, n=20): 0
- Wound infection, number of patients ([3]; Grade III, IV, n=20): 0
- Postoperative complications of higher than grade 1 (Clavien-Dindo), number of patients [3, 6]: 10
- Postoperative complications of higher than grade 1 (Clavien-Dindo), share of patients [3, 6]: 50%
- incidence of pulmonary complications, including postoperative pneumonia and atelectasis, versus placebo group ([3]; ghrelin 0.5 μg/kg/h continuous i.v. for 5 days, P=0.016): significantly lower
- GH secretion by mode of ghrelin administration (GH secretion): continuous infusion was better than periodic injection
- adverse events attributable to ghrelin administration [4]: No adverse events attributable to ghrelin administration were observed
- Serum CRP (C-reactive protein (CRP); POD1): 6.6 ± 2.0 mg/dL
- Serum CRP (C-reactive protein (CRP); POD3): 11.1 ± 6.6 mg/dL
- Serum CRP (C-reactive protein (CRP); POD3, listed as Ghrelin): 11.1 ± 6.6 mg/dL
- Serum CRP (C-reactive protein (CRP); POD7): 4.3 ± 3.6 mg/dL
- Serum CRP (C-reactive protein (CRP); POD7, listed as Ghrelin): 4.3 ± 3.6 mg/dL
- Serum CRP (C-reactive protein (CRP); POD10): 2.1 ± 2.3 mg/dL
- Serum CRP (C-reactive protein (CRP); POD10, listed as Ghrelin): 2.1 ± 2.3 mg/dL
- Serum CRP (C-reactive protein (CRP); Preoperative (baseline)): 0.3 ± 0.5 mg/dL
- time required to attain positive nitrogen balance [5]: 2.6 ± 1.6 days
